Data reported in patent publication US20090209560A1, “ANTI-INFLAMMATION ACTIVITY OF NEWLY SYNTHESIZED XANTHINE DERIVATIVES KMUP-1 AND KMUP-3” (KAOHSIUNG MEDICAL UNIVERSITY, priority 2006, published 2009).

Legend:
Format in all cases: cell-based, rat
PKA = PKA protein expression by immunoblotting in TNF-α-exposed TSMCs; conditions: TSMCs with TNF-α 100 ng/ml; for effect on TNF-α-induced increases of PKA protein: 10 μM, FIG. 8; for effect on TNF-α-increased expression of PKA protein: 0.1-100 μM, FIG. 7(A) as cited in text
Description: (§1) The tracheal smooth muscle cell (TSM) culture is prepared from male Wistar rats purchased from the National Laboratory Animal Breeding and Research Center (Taipei, Taiwan).
(§2) The Wistar rats were injected intraperitoneally with a lethal dose of pentobarbital. The tracheas were excised and cut longitudinally through the cartilage. Using a dissecting microscope, TSM strips were dissected from the surrounding parenchyma. The epithelium was removed from the luminal surface, and bands of TSM were gently separated from the underlying connective tissue. The TSM strips were then chopped into small sections (1 mm^3) and incubated in Hank's balanced salt solution (NaCl, 138 mM; NaHCO3, 4 mM; KCl, 5 mM; KH2PO4, 0.3 mM; Na2HPO4, 0.3 mM; glucose, 1.0 mM) with 0.05% elastase type IV and 0.2% collagenase type IV (Invitrogen, Carlsbad, Calif.) for 30 min at 37° C. with gentle shaking. The solution of dissociated smooth muscle cells was centrifuged (6 min at 500 g) and the pellet was resuspended in 1:1 Dulbecco's modified Eagle's medium-Ham's F-12 medium supplemented with 10% fetal bovine serum (FBS), 0.244% NaHCO3, and 1% penicillin/streptomycin. Cells were cultured in a condition with or without KMUP-1, KMUP-3 and other negative or positive control agents, in 25 cm^2 flasks at 37° C. in humidified air containing 5% CO2. The medium was changed every 2-3 days.
(§3) To investigate the effects of TNF-α on PKG and PKA proteins, TSMCs were incubated with TNF-α (100 ng/ml) for 1, 3, 6, 9, 12, 18 and 24 hr, and the levels of PKG and PKA proteins were measured by immunoblotting. […] To investigate the effects of KMUP-1, KMUP-3, and the other PDE5 inhibitors zaprinast and exogenous 8-Br-cGMP on the TNF-α mediated pathway, TSMCs were incubated with TNF-α (100 ng/ml) and either one of the mentioned chemicals.

nitrite/nitrate (NO) = assay: NO level measured by nitrite/nitrate in TSMC culture medium (colorimetric assay); conditions: 10 μM, 20 min pretreatment, then TNF-α 100 ng/ml for 9 hrs; FIG. 11
Description: as §1, §2
Exposure of TSMCs to TNF-α (100 ng/ml) for 9 hrs led to accumulation of nitrite and nitrate in the culture medium, indicating the release of NO. Please refer to the FIG. 11, TSMCs were pretreated with KMUP-1, KMUP-3, 8-Br-cGMP and zaprinast for 20 minutes, and were further incubated in the presence of TNF-α (100 ng/ml) for 9 hrs. The concentrations of nitrite and nitrate (stable breakdown product of NO) of each sample were analyzed using nitrite/nitrate colorimetric assay kits (Cayman Chemical Co.) and run in duplicate.

sGCα1 and sGCβ1 proteins = assay: sGC subunit protein expression by immunoblotting in TNF-α-exposed TSMCs; conditions: 10 μM; TSMCs with TNF-α 100 ng/ml; FIG. 5
Description: as §1, §2
(§4) To investigate the effects of TNF-α on iNOS and sGC proteins, TSMCs were incubated with TNF-α (100 ng/ml) for 1, 3, 6, 9, 12, 18 and 24 hr, and the levels of iNOS and sGC subunit proteins were measured by immunoblotting. […] In contrast to the increase expression of iNOS protein in FIG. 2, TNF-α in FIG. 3 decreased the expression of sGCα1 and sGCβ1 proteins in a time-dependent manner, with the maximal inhibition achieved at 9 hr. To investigate the effects of KMUP-1, KMUP-3, and the other PDE5 inhibitors zaprinast and exogenous 8-Br-cGMP on the TNF-α mediated pathway, TSMCs were incubated with TNF-α (100 ng/ml) and either one of the mentioned chemicals.

iNOS = iNOS protein expression by immunoblotting in TNF-α-exposed TSMCs; conditions: TSMCs with TNF-α 100 ng/ml
Description: as §1, §2, §4

PKG = PKG protein expression by immunoblotting in TNF-α-exposed TSMCs; conditions: TSMCs with TNF-α 100 ng/ml; for effect on TNF-α-induced decreases of PKG protein: 10 μM, FIG. 8; for effect on TNF-α-induced decreases of PKG protein expression: concentration series, FIG. 7(B) as cited in text
Description: as §1, §2, §3

cGMP = assay: Intracellular cGMP level in TSMCs (radioimmunoassay); conditions: 10 μM, 20 min pretreatment, then TNF-α 100 ng/ml for 9 hrs; FIG. 10(A)
Description: as §1
as §2, with “Cells were cultured in a condition with or without KMUP-1, KMUP-3 and other negative or positive control agents, in 25 cm^2 flasks at 37° C. in humidified air containing 5% CO2. The medium was changed every 2-3 days.” left out
Intracellular cGMP production was decreased and reaching minimal production at 9 hr in TSMCs in the presence of TNF-α (100 ng/ml). Intracellular concentrations of cAMP and cGMP in TSMC were measured to investigate the effects of KMUP-1, KMUP-3, and the other PDE5 inhibitor zaprinast or the isoproterenol thereto. […] The concentrations of cGMP of each sample were measured using cGMP-[125I] radioimmunoassay kits (GE Healthcare Bio-Sciences Corp., Piscataway, N.J.). […] As to the level of the cAMP, TSMCs were incubated with isoproterenol, KMUP-1, and KMUP-3 for 20 min, and further incubated in the absence or presence of TNF-α (100 ng/ml) for 9 hrs, where the concentrations of cAMP of each sample were measured using cAMP-[125I] radioimmunoassay kits (GE Healthcare Bio-Sciences Corp., Piscataway, N.J.).

cAMP = assay: Intracellular cAMP level in TSMCs (radioimmunoassay); conditions: FIG. 10(B)
Description: as §1, §2
Intracellular cGMP production was decreased and reaching minimal production at 9 hr in TSMCs in the presence of TNF-α (100 ng/ml). Intracellular concentrations of cAMP and cGMP in TSMC were measured to investigate the effects of KMUP-1, KMUP-3, and the other PDE5 inhibitor zaprinast or the isoproterenol thereto. As to the level of cGMP, TSMCs were pretreated with KMUP-1, KMUP-3, and the other PDE5 inhibitor zaprinast for 20 minutes and were further incubated in the presence of TNF-α (100 ng/ml) for 9 hrs. The concentrations of cGMP of each sample were measured using cGMP-[125I] radioimmunoassay kits (GE Healthcare Bio-Sciences Corp., Piscataway, N.J.). […] As to the level of the cAMP, TSMCs were incubated with isoproterenol, KMUP-1, and KMUP-3 for 20 min, and further incubated in the absence or presence of TNF-α (100 ng/ml) for 9 hrs, where the concentrations of cAMP of each sample were measured using cAMP-[125I] radioimmunoassay kits (GE Healthcare Bio-Sciences Corp., Piscataway, N.J.).

PGE2 and 6-keto-PGF1a = PGE2 and 6-keto-PGF1a release from TNF-α-exposed TSMCs (EIA); conditions: 10 μM, 20 min pretreatment, then TNF-α 100 ng/ml for 24 hrs; FIG. 12
Description: as §1, §2
Incubation of TSMCs with TNF-α (100 ng/ml) increased the releases of PGs, PGE2 and 6-keto-PGF1a, a PGI2 stable metabolite, and the greatest increases occurred were measured at 24 hr. Please refer to the FIG. 12, TSMCs were pretreated with KMUP-1 (10 μM), KMUP-3 (10 μM), dexamethasone (1 μM) and zaprinast (10 μM) for 20 minutes, and were further incubated in the presence of TNF-α (100 ng/ml) for 24 hrs, where the concentrations of PGE2 and 6-keto-PGF1a (stable metabolite of […]) in the culture medium were measured using PGE2 and 6-keto-PGF1a EIA assay kits (Cayman Chemical Co., Ann Arbor, Mich.) in duplicate.

COX-2 = COX-2 protein expression by immunoblotting in TNF-α-exposed TSMCs; conditions: TSMCs with TNF-α 100 ng/ml, FIG. 9(B)
Description: The Wistar rats were injected intraperitoneally with a lethal dose of pentobarbital. The tracheas were excised and cut longitudinally through the cartilage. Using a dissecting microscope, TSM strips were dissected from the surrounding parenchyma. The epithelium was removed from the luminal surface, and bands of TSM were gently separated from the underlying connective tissue. The TSM strips were then chopped into small sections (1 mm^3) and incubated in Hank's balanced salt solution (NaCl, 138 mM; NaHCO3, 4 mM; KCl, 5 mM; KH2PO4, 0.3 mM; Na2HPO4, 0.3 mM; glucose, 1.0 mM) with 0.05% elastase type IV and 0.2% collagenase type IV (Invitrogen, Carlsbad, Calif.) for 30 min at 37° C. with gentle shaking. The solution of dissociated smooth muscle cells was centrifuged (6 min at 500 g) and the pellet was resuspended in 1:1 Dulbecco's modified Eagle's medium-Ham's F-12 medium supplemented with 10% fetal bovine serum (FBS), 0.244% NaHCO3, and 1% penicillin/streptomycin. […] The medium was changed every 2-3 days.
To investigate the effects of TNF-α on COX-2 protein, TSMCs were respectively incubated with or without TNF-α (100 ng/ml) for 1, 3, 6, 9, 12, 18 and 24 hr, and the levels of COX-2 proteins were measured by immunoblotting.

[1] = in the presence of TNF-α 100 ng/ml for 9 hrs

SMILES	effect on TNF-α-induced increases of PKA protein (PKA)	effect on TNF-α-induced production of nitrite/nitrate (NO levels) (nitrite/nitrate (NO))	effect on TNF-α inhibition of sGCα1 and sGCβ1 protein expression (sGCα1 and sGCβ1 proteins)	effect on TNF-α-induced increases of iNOS expression (iNOS; 10 μM, FIG. 4(B))	effect on TNF-α-induced decreases of PKG protein (PKG)	effect on TNF-α-decreased intracellular cGMP (cGMP)	production of cAMP compared to the control group (cAMP; 10 μM, in the absence of TNF-α)	production of cAMP compared to the control group (cAMP; [1])	effect on TNF-α-induced PGE2 and 6-keto-PGF1a formation (PGE2 and 6-keto-PGF1a)	effect on TNF-α-increased expression of PKA protein (PKA)	inhibition of TNF-α-induced COX-2 expression (COX-2)	effect on TNF-α-induced increases of iNOS expression (iNOS; 0.01-100 μM, FIG. 4(A))	effect on TNF-α-induced decreases of PKG protein expression (PKG)	inhibition of TNF-α-induced COX-2 expression (COX-2; 10 μM pretreatment)
Nc1ncnc2c1nc(Br)n2[C@@H]1O[C@@H]2COP(=O)(O)O[C@H]2[C@H]1O [8-Br-cAMP, reference compound]	could not affect TNF-α-induced increases of PKA protein													
Nc1nc2c(nc(Br)n2[C@@H]2O[C@@H]3COP(=O)(O)O[C@H]3[C@H]2O)c(=O)[nH]1 [8-Br-cGMP, reference compound]		inhibited	reversed	inhibited TNF-α-induced increases of iNOS expression to a similar extent	reversed TNF-α-induced decreases of PKG protein									
Cn1c(=O)c2c(ncn2CCN2CCN(c3ccccc3Cl)CC2)n(C)c1=O [KMUP-1, 7-[2-[4-(2-chlorobenzene)piperazinyl]ethyl]-1,3-dimethylxanthine]	could not affect TNF-α-induced increases of PKA protein	inhibited	reversed	inhibited TNF-α-induced increases of iNOS expression to a similar extent	reversed TNF-α-induced decreases of PKG protein	reversed to the basal level	significantly increased	could not further increase	did not inhibit	not further increased	not	inhibited TNF-α-induced increases of iNOS expression in a concentration-dependent manner	reversed	
Cn1c(=O)c2c(ncn2CCN2CCN(c3ccc([N+](=O)[O-])cc3)CC2)n(C)c1=O [KMUP-3, 7-[2-[4-(4-nitrobenzene)piperazinyl]ethyl]-1,3-dimethylxanthine]	could not affect TNF-α-induced increases of PKA protein	inhibited	reversed	inhibited TNF-α-induced increases of iNOS expression to a similar extent	reversed TNF-α-induced decreases of PKG protein	reversed to the basal level	significantly increased	could not further increase	did not inhibit	not further increased	not	inhibited TNF-α-induced increases of iNOS expression in a concentration-dependent manner	reversed	
CS(=O)(=O)Nc1ccc([N+](=O)[O-])cc1OC1CCCCC1 [NS-398, reference compound]									significantly inhibited					significantly inhibit
CC(C)NCC(O)c1ccc(O)c(O)c1 (stereo not shown) [isoproterenol, reference compound]							significantly increased							
CCCOc1ccccc1-c1nc2nn[nH]c2c(=O)[nH]1 [zaprinast, reference compound]	could not affect TNF-α-induced increases of PKA protein	inhibited	reversed	inhibited TNF-α-induced increases of iNOS expression to a similar extent	reversed TNF-α-induced decreases of PKG protein	reversed to the basal level								
